The values below come from patent US9126060B2, “Cosmetic use of geranylgeranyl-2-propanol” (SEDERMA, priority 2010, dated 2015).

The subject of one assay is syndecan 1. The experiment in a line: Syndecan 1 synthesis in NHK supernatants (ELISA). The following applies: for Syndecan 1: 48 h, n = 3. Format: cell-based, human. As to the method: Principle: Human keratinocytes (NHK) are cultivated in a growth medium. After 6 days of incubation, the cells are contacted or not with the tested products (GGP and GGA) at 3, 5 or 7 ppm for 48 h. After incubation, the supernatants are taken and the syndecan 1 content is assayed by ELISA in these supernatants. The cell layers are sonicated and the cell number is evaluated by Hoechst method.
(An ELISA detects its analyte on a solid surface through an enzyme-linked reagent.)

Assay [1] is described as follows: ORAC test (Oxygen-Radical Absorbance Capacity): fluorescein degradation by peroxyl radicals. The conditions noted are these: n = 6. Format: biochemical. The source says:
Principle: the ORAC test (“Oxygen-Radical Absorbance Capacity”) measures degradation by the oxidative way of a fluorescent molecule (fluorescein). Degradation of fluorescein by peroxyl radicals generated by AAPH (2,2′-azobis (2-amidinopropane) dichloride) induces a decrease in fluorescence measured by a spectrofluorometer during a degradation kinetic.
An antioxidant protects this fluorescein against this radical degradation. The decrease in fluorescence will be smaller and slower in the presence of the antioxidant than in its absence. The comparison between the parameters of the two kinetics makes it possible to calculate a percentage of protection against free radical degradation.

For the next assay, the system named is collagen I. Put plainly: Collagen I synthesis in presenescent fibroblasts (immunofluorescence, image analysis). The following applies: for collagen I: senescent cells, 11 days, n = 20 photos. It is filed as cell-based, human. The procedure: Principle: The collagen I synthesis was monitored in pre-senescent human dermal fibroblasts. These cells were cultured for 11 days with the GGP in a growth medium. Following this incubation, the cell layers were fixed and labeled by immunofluorescence, to visualize the network of collagen I and to quantify by image analysis on photographs. In parallel, quantification was performed on proliferating cells.

Regarding `CC(C)=CCC/C(C)=C/CC/C(C)=C/CC/C(C)=C/CCC(C)O` (stereo not shown) [GGP, 6,10,14,18-tetramethylnonadeca-5,9,13,17-tetraen-2-ol], the results for the “Change (%) of syndecan 1 vs control” value in the assay on syndecan 1 (3 ppm) and in the assay with syndecan 1 (5 ppm) were “+96%; p < 0.01” and “+190%; p < 0.01”, respectively. Also, the “Syndecan 1” value is on record as 135.3 +/− 6.3 pg/10^6 cell with syndecan 1 (3 ppm), 200.6 +/− 15.8 pg/10^6 cell in the assay on syndecan 1 (5 ppm) and 265.5 +/− 24.3 pg/10^6 cell in the assay with syndecan 1 (7 ppm). The “% of protection” value in assay [1] (10 ppm) is 56%; in assay [1] (50 ppm), 68%; in assay [1] (200 ppm) it was 77%; in assay [1] (400 ppm) it was 87%. The “Change (%) of collagen I vs senescent cells” value with collagen I (3 ppm) is on record as “+367%; p < 0.01”; with collagen I (5 ppm) it was “+483%; p < 0.01”. The entries for the “collagen I” value with collagen I (3 ppm) and with collagen I (5 ppm) were 280 +/− 220 UFA/10^4 cell and 350 +/− 290 UFA/10^4 cell, respectively.
